Reference: patent US20210315474A1, “DECOUPLED COIL ASSEMBLIES, MAGNETIC RESONANCE SYSTEMS AND METHODS OF USE” (FluoID Inc, priority 2018, published 2021)

Assay: 19F magnetic resonance imaging in vivo: tracking isoflurane in rat brain
Conditions: live Sprague-Dawley rat
Excerpt: A MR system is utilized for this representative imaging experiment.
Here, indirect inverse irradiation focused on 19F is utilized to provide rapid and specific identification of the target molecule of interest while observing 1H, while circulating in a subject organism.
A live Sprague-Dawley rat was secured in the bed of the representative holding assembly of Example 1B. The RF coil elements were situated such that the area around its head was encircled to provide complete coverage for the brain of the animal, then the assembly placed in the MRI system of Example 1C. Localization of the spin species of interest, 19F, was accomplished with a spin-echo (or, alternatively, gradient-echo) sequence preceded with a magnetization transfer (MT) pulse allowing magnetization from 19F to 1H. The rat was subjected to increasing stepwise amounts of isoflurane, an inhaled general anesthetic with chemical structure CF3-CHCl—O—CHF2, over 30 minutes (see Table 2), then the flow was halted.
Anatomical MR images were obtained also using a standard spin-echo (or alternatively, gradient-echo) sequence. The MT pulse duration and strength were maintained constant prior to the signal acquisition by the surface coil.

For `FC(F)OC(Cl)C(F)(F)F` (centres unmarked) [isoflurane], the “19F signal seen in the brain (level of the drug reaching the CNS in real time)” value (inhaled isoflurane increased stepwise 1%-3% over 30 minutes, MT pulse 19F to 1H, FIG. 17) was “increasing amount of 19F signal seen in the brain” and the “concentration of isoflurane in the brain after cessation of anesthetic delivery” value (over the 30 minutes following cessation of anesthetic delivery (not shown)) was “disappearance of the concentration of isoflurane in the brain could be observed”.
